{"source": "patent US4738983A", "about": "“Ethylenediamine and guanidine-derivatives” (Degussa aktiengesellschaft, priority 1982, dated 1988)", "test_system": "carbachol spasm of the rat stomach", "assay": "carbachol spasm of the rat stomach (stomach-spasmolytic effect)", "format": "in vivo", "conditions": "intraduodenal, relative to Ranitidin", "from_the_text": "The test substances are applied intraduodenally. In this model, the stomach-spasmolytic effect of the compound according to Example 1 is, for example 3.8 times greater than that of \"Ranitidin\".", "data": [{"compound": "CNC(=C[N+](=O)[O-])NCCSCc1ccc(CNC2C3CC4C(C3)C42)o1", "note": "(stereo not shown) [Example 1, N-[2-[[5-(tricyclo(2.2.1.0^2.6)hept-3-yl-amino-methyl)-2-furanyl]-methylthio]-ethyl]-N'-methyl-2-nitro-1,1-ethylene-diamine]", "values": [{"measurement": "stomach-spasmolytic effect, times greater than that of Ranitidin", "value": 3.8, "unit": "times"}]}]}
